Here are results for 18 molecules from US8747537B2, “Ink containing heterocyclic azo dye, and dye for use in said ink” (Mitsubishi Chemical Corporation, priority 2010, dated 2014).

Structures are written as SMILES.

Series [1] can be described thus: Light fastness test (retention of dye after 2 hours of high-pressure mercury lamp irradiation). It is filed as physicochemical. The note with it: 1 mg in 250 mL, 2 hours irradiation. As for the experimental part: The light fastness of each dye was examined in the following manner. One milligram of each dye was dissolved in 250 mL of each of n-decane, tetradecane, Isopar M, and Isopar G, and the solution was irradiated with light for 2 hours using photoreaction apparatus UVL-400HA (400-W high-pressure mercury lamp), manufactured by Riko-Kagaku Sangyo Co., Ltd. During the irradiation, the vessel was cooled with a coolant to keep the internal temperature at 10-30° C. The retention of the dye was determined through the following calculation to evaluate the light fastness. Retention of dye=(absorbance at absorption-maximum wavelength after irradiation)/(absorbance at absorption-maximum wavelength before irradiation)

The nature of series [2]: Solubility test in low-polarity solvents (saturated solution, λmax, solubility, εC). The series is classed as physicochemical. The note with it: for Solubility: saturated solution. How it is done: The solubility of each dye in n-decane, tetradecane, Isopar M, Isopar G, and decalin was examined in the following manner. Each dye was added to each solvent until a dissolution residue came to remain, and this mixture was subjected to a 30-minute ultrasonic treatment at 30 degrees. The resultant mixture was allowed to stand at 5° C. for 24 hours and then subjected to centrifugal filtration (centrifugal force, 5,200×g) with a 0.1-μm filter using a microcentrifuge. The saturated solution obtained was diluted to an adequate concentration, and the solubility of each dye was calculated from a relationship with an extinction coefficient determined beforehand. Furthermore, the value of the product of the molar extinction coefficient ε (Lmol^−1cm^−1) and the concentration C (molL^−1) of the saturated solution, εC, was determined.
Sudan Black B (manufactured by Tokyo Kasei Kogyo Co., Ltd.), which is a commercial oil-soluble black dye, was added to n-decane until a dissolution residue came to remain, and this mixture was subjected to a 30-minute ultrasonic treatment at 30 degrees. The resultant mixture was allowed to stand at 5° C. for 24 hours and then subjected to centrifugal filtration (centrifugal force, 5,200×g) with a 0.1-μm filter using a microcentrifuge. The saturated n-decane solution obtained was diluted to an adequate concentration, and the solubility of the dye was calculated from a relationship with an extinction coefficient determined beforehand.

Setting [3] is: n-decane, 400-W high-pressure mercury lamp.
Where [4] appears, read: n-decane, stood at 5° C. for 24 hours, 0.1-μm filter.

For the molecule `CCCCC(CC)CNc1ccc(NCC(CC)CCCC)c2c1C(=O)c1ccccc1C2=O` (stereo not drawn) [Comparative dye 2, reference compound], the “Light fastness: retention of dye” value in series [1] (Isopar G) is recorded as 85%; in series [1] (Isopar M), 90%; in series [1] (setting [3]), 92%; in series [1] (tetradecane) it was 99%. Also, the εC is 1200 cm⁻¹ in series [2] (Isopar G), 1000 cm⁻¹ in series [2] (Isopar M), 3400 cm⁻¹ in series [2] (decalin) and 1600 cm⁻¹ in series [2] (tetradecane). Further, the “λmax (absorption-maximum wavelength)” value in series [2] (Isopar G solution) worked out at 649 nm; in series [2] (Isopar M solution) it was 650 nm; in series [2] (decalin solution) it was 645 nm; in series [2] (n-decane solution), 652 nm; in series [2] (tetradecane solution), 651 nm. Moreover, the Solubility turned out to be 4.3% in series [2] (Isopar G); 3.6% in series [2] (Isopar M); 9.98% in series [2] (decalin); 6.6% in series [2] (setting [4]); 5.7% in series [2] (tetradecane). Further, in series [2] (each of the low-polarity solvents), the “εC (in words)” value is “small value”. Besides, the “λmax (in words)” value in series [2] (low-polarity solvents) is “large value”. Further, the “εC (molar extinction coefficient × concentration of saturated solution)” value in series [2] (n-decane) was 2000 cm⁻¹.

For `C=Cn1c(N=Nc2ccc(N(CCCC)CCCC)cc2NC(C)=O)nc(C#N)c1C#N` [Comparative dye 3, reference compound], the “Light fastness: retention of dye” value in series [1] (setting [3]) is 76%. Further, the εC entry in series [2] (Isopar G), in series [2] (Isopar M), in series [2] (decalin) and in series [2] (tetradecane) was “≦10 cm^−1” each time. The Solubility result in series [2] (Isopar G), in series [2] (Isopar M), in series [2] (decalin), in series [2] (setting [4]) and in series [2] (tetradecane) was “≦0.01%” throughout. Moreover, the “λmax (absorption-maximum wavelength)” value in series [2] (decalin solution) stood at 520 nm. The “εC (molar extinction coefficient × concentration of saturated solution)” value in series [2] (n-decane) is on record as “≦10 cm^−1”.

In the case of `CCc1nsc(N=Nc2ccc(N(CC(C)C)CC(C)C)cc2NC(C)=O)c1C#N` [Dye 1], in series [1] (setting [3]), the “Light fastness: retention of dye” value was 97%. In addition, in series [2] (n-decane), the “εC (molar extinction coefficient × concentration of saturated solution)” value came to 1000 cm⁻¹. For the same molecule, in series [2] (n-decane solution), the “λmax (absorption-maximum wavelength)” value amounted to 538 nm. Moreover, the Solubility in series [2] (setting [4]) is on record as 1.1%.

Consider `CCCCC(CC)CN(CC(CC)CCCC)c1ccc(N=Nc2snc(C)c2C#N)c(NC(C)=O)c1` (stereo not drawn) [Dye 2], for which the “Light fastness: retention of dye” value in series [1] (Isopar G) came out at 100%; in series [1] (Isopar M), 100%; in series [1] (setting [3]) it was 97%; in series [1] (tetradecane), 94%. The εC in series [2] (Isopar G) came to 5000 cm⁻¹; in series [2] (Isopar M), 4000 cm⁻¹; in series [2] (decalin), 24000 cm⁻¹; in series [2] (tetradecane), 4900 cm⁻¹. Moreover, the “λmax (absorption-maximum wavelength)” value in series [2] (Isopar G solution) is given as 542 nm; in series [2] (Isopar M solution), 544 nm; in series [2] (decalin solution), 547 nm; in series [2] (n-decane solution), 543 nm; in series [2] (tetradecane solution) it was 545 nm. The Solubility was 5.7% in series [2] (Isopar G); 4.32% in series [2] (Isopar M); 24.5% in series [2] (decalin); 7.9% in series [2] (setting [4]); 5.4% in series [2] (tetradecane). Besides, in series [2] (n-decane), the “εC (molar extinction coefficient × concentration of saturated solution)” value was 6600 cm⁻¹.

Take `CCCCC(CC)CN(CC(CC)CCCC)c1ccc(N=Nc2sc(C(=O)OCC)c(C)c2C(=O)OCC)c(NC(C)=O)c1` (stereo not drawn) [Dye 3]: in series [1] (setting [3]), the “Light fastness: retention of dye” value amounted to 92%. Also, in series [2] (n-decane), the “εC (molar extinction coefficient × concentration of saturated solution)” value came out at 1300 cm⁻¹. The “λmax (absorption-maximum wavelength)” value in series [2] (n-decane solution) amounted to 537 nm. This molecule had a Solubility in series [2] (setting [4]) of 2.4%.

With `CCCCCCCCN(CC(CC)CCCC)c1ccc(/N=N/c2snc(C)c2C#N)c(C)c1` (stereo not drawn) [Dye 5], in series [2] (n-decane), the “εC (molar extinction coefficient × concentration of saturated solution)” value worked out at 1300 cm⁻¹. For the same molecule, the “λmax (absorption-maximum wavelength)” value in series [2] (n-decane solution) was found to be 523 nm. For the same molecule, in series [2] (setting [4]), the Solubility is listed as 2.1%.

In the case of `CCCCC(CC)CN(CC(CC)CCCC)c1ccc(/N=N/c2sc(C(=O)OCC)c(C)c2C(=O)OCC)c(C)c1` (stereo not drawn) [Dye 6], the “εC (molar extinction coefficient × concentration of saturated solution)” value in series [2] (n-decane) stood at 3200 cm⁻¹. In addition, the “λmax (absorption-maximum wavelength)” value in series [2] (n-decane solution) is 504 nm. The Solubility in series [2] (setting [4]) came to 8.4%.

As to `CCCCC(CC)CN(CC(CC)CCCC)c1ccc(/N=N/c2snc(C)c2C#N)c(CC)c1` (stereo not drawn) [Dye 8], the values for the εC in series [2] (Isopar G), in series [2] (Isopar M) and in series [2] (tetradecane) were 3600 cm⁻¹, 2500 cm⁻¹ and 2800 cm⁻¹, respectively. In addition, the “λmax (absorption-maximum wavelength)” value is on record as 533 nm in series [2] (Isopar G solution), 534 nm in series [2] (Isopar M solution), 533 nm in series [2] (n-decane solution) and 534 nm in series [2] (tetradecane solution). In addition, the Solubility in series [2] (Isopar G) was determined as 5.17%; in series [2] (Isopar M) it was 3.4%; in series [2] (setting [4]) it was 10%; in series [2] (tetradecane) it was 3.9%. Also, in series [2] (n-decane), the “εC (molar extinction coefficient × concentration of saturated solution)” value is 6500 cm⁻¹.

As to `CCCCC(CC)CN(CC(CC)CCCC)c1ccc(/N=N/c2snc(C)c2C#N)c(NC(=O)CC)c1` (stereo not drawn) [Dye 9], the εC in series [2] (Isopar G) came to 11500 cm⁻¹; in series [2] (Isopar M), 8900 cm⁻¹; in series [2] (decalin), 8500 cm⁻¹; in series [2] (tetradecane) it was 7400 cm⁻¹. Besides, the “λmax (absorption-maximum wavelength)” value in series [2] (Isopar G solution) is listed as 543 nm; in series [2] (Isopar M solution), 544 nm; in series [2] (decalin solution) it was 547 nm; in series [2] (n-decane solution) it was 543 nm; in series [2] (tetradecane solution), 544 nm. In addition, the Solubility in series [2] (Isopar G) was 13.3%; in series [2] (Isopar M), 9.8%; in series [2] (decalin) it was 9.1%; in series [2] (setting [4]), 13%; in series [2] (tetradecane), 8.5%. Further, the “εC (molar extinction coefficient × concentration of saturated solution)” value in series [2] (n-decane) is 11000 cm⁻¹.

In the case of `CCCCC(CC)CN(CC)c1ccc(/N=N/c2snc(CC)c2C#N)c(NC(C)=O)c1` (stereo not drawn) [Dye 11], in series [2] (n-decane), the “εC (molar extinction coefficient × concentration of saturated solution)” value was determined as 4300 cm⁻¹. In series [2] (n-decane solution), the “λmax (absorption-maximum wavelength)” value came out at 535 nm. For the same molecule, in series [2] (setting [4]), the Solubility amounted to 4.2%.

In the case of `CCCCc1nsc(/N=N/c2ccc(N(CC(C)C)CC(C)C)cc2NC(C)=O)c1C#N` [Dye 12], the “εC (molar extinction coefficient × concentration of saturated solution)” value in series [2] (n-decane) came to 4100 cm⁻¹. Besides, the “λmax (absorption-maximum wavelength)” value in series [2] (n-decane solution) was determined as 543 nm. The molecule further showed a Solubility in series [2] (setting [4]) of 5.7%.

`CCCCc1nsc(/N=N/c2ccc(N(CC(CC)CCCC)CC(CC)CCCC)cc2C)c1C#N` (stereo not drawn) [Dye 13]: the “εC (molar extinction coefficient × concentration of saturated solution)” value in series [2] (n-decane) came to 3700 cm⁻¹. In addition, in series [2] (n-decane solution), the “λmax (absorption-maximum wavelength)” value was 527 nm. Moreover, the Solubility in series [2] (setting [4]) came out at 5.9%.

Take `CCCCC(CC)CN(CC(CC)CCCC)c1ccc(/N=N/c2snc(C(C)C)c2C#N)c(C)c1` (stereo not drawn) [Dye 14]: the “εC (molar extinction coefficient × concentration of saturated solution)” value in series [2] (n-decane) was 2800 cm⁻¹. The “λmax (absorption-maximum wavelength)” value in series [2] (n-decane solution) was found to be 527 nm. Also, the Solubility in series [2] (setting [4]) was found to be 4.8%.

For `CCCCC(CC)CN(CC(CC)CCCC)c1ccc(/N=N/c2snc(C)c2C#N)c(C(C)C)c1` (stereo not drawn) [Dye 15], the “εC (molar extinction coefficient × concentration of saturated solution)” value in series [2] (n-decane) is 8300 cm⁻¹. Further, in series [2] (n-decane solution), the “λmax (absorption-maximum wavelength)” value is 535 nm. Besides, the Solubility in series [2] (setting [4]) was 9.7%.

As to `CCCCC(CC)CN(CC(CC)CCCC)c1cc(C)c(/N=N/c2snc(C)c2C#N)cc1OC` (stereo not drawn) [Dye 16], in series [2] (n-decane), the “εC (molar extinction coefficient × concentration of saturated solution)” value stood at 2300 cm⁻¹. Moreover, in series [2] (n-decane solution), the “λmax (absorption-maximum wavelength)” value was 563 nm. This molecule had a Solubility in series [2] (setting [4]) of 3.7%.

`CCCCC(CC)CN(CC(CC)CCCC)c1ccc(/N=N/c2snc(C)c2C#N)cc1` (stereo not drawn) [Dye 17]: in series [2] (n-decane), the “εC (molar extinction coefficient × concentration of saturated solution)” value was 12000 cm⁻¹. Besides, the “λmax (absorption-maximum wavelength)” value in series [2] (n-decane solution) turned out to be 523 nm. The Solubility in series [2] (setting [4]) was determined as 9.2%.

For `CCOC(=O)c1sc(/N=N/c2ccc(N(CC(C)C)CC(C)C)cc2C)c(C(=O)OCC)c1C` [Dye 18], the “εC (molar extinction coefficient × concentration of saturated solution)” value in series [2] (n-decane) is 1000 cm⁻¹. For the same molecule, the “λmax (absorption-maximum wavelength)” value in series [2] (n-decane solution) is 498 nm. Further, the Solubility in series [2] (setting [4]) is given as 1.7%.

Turning to `CCCCC(CC)CN(CC(CC)CCCC)c1ccc(/N=N/c2sc(C(=O)OCC)c(C)c2C#N)c(CC)c1` (stereo not drawn) [Dye 20], in series [2] (n-decane), the “εC (molar extinction coefficient × concentration of saturated solution)” value turned out to be 6000 cm⁻¹. Further, the “λmax (absorption-maximum wavelength)” value in series [2] (n-decane solution) is 546 nm. In addition, the Solubility in series [2] (setting [4]) is 9.7%.
